According to patent US9815863B2, “Hydrogen bond forming fluoro ketolides for treating diseases” (priority 2010, dated 2017):

Tests used:
[1] = tested on: bacterial protein synthesis (E. coli S30 extract); test: E. coli cell-free transcription-translation (TnT) S30 system, firefly luciferase synthesis; settings: read-out: IC50 of inhibition of firefly luciferase synthesis, ribosomes 600 nM
[2] = tested on: S. aureus ribosomes (23S rRNA); test: RNA footprinting (ribosome chemical probing), wild-type S. aureus ribosomes; type: binding; settings: 100 μM antibiotic; for Protection of A752 from DMS modification: S. aureus ribosomes
Description: (§1) Ribosome chemical probing. rRNA probing was done following standard protocols (Merryman, C., and H. F. Noller. 1998. Footprinting and modification-interference analysis of binding sites on RNA, p. 237-253. In C. W. J. Smith (ed.), RNA:Protein Interactions, A Practical Approach. Oxford University Press, Oxford), with minor modifications. Briefly, 200 nM ribosomes were incubated with 100 μM antibiotic in 50 μL of buffer B (80 mM HEPES-KOH [pH 7.8], 20 mM MgCl2, 100 mM NH4Cl, 1.5 mM dithiothreitol) for 10 min at 37° C., followed by 10 min at 20° C. Modifying reagents (dimethyl sulfate [DMS], kethoxal, or 1-cyclohexyl-3-(2-morpholinoethyl)carbodiimide metho p-toluene sulfonate [CMCT]) were added and the modification reaction was carried out for 10 min at 37° C. After quenching the reaction and ethanol precipitation, rRNA was extracted and the distribution of modified nucleotides was assessed by primer extension.
(§2) Interactions of CEM-101 with wild-type E. coli and S. aureus ribosomes in solution. […] 1987. Chloramphenicol, erythromycin, carbomycin and vernamycin B protect overlapping sites in the peptidyl transferase region of 23S ribosomal RNA. Biochimie 69:879-884). Also included in this study was a C3-cladinose cousin of CEM-101, CEM-103, which lacks the C2-linked fluorine atom.

[3] = tested on: E. coli ribosomes (23S rRNA); test: RNA footprinting (ribosome chemical probing), wild-type E. coli ribosomes; type: binding; settings: 100 μM antibiotic; for Protection of A752 from DMS modification: E. coli ribosomes
Description: as §1, §2

[4] = tested on: 2058-dimethylated ribosomes isolated from the S. aureus N315 strain; test: RNA footprinting of A2058-dimethylated (Erm-modified) ribosomes from S. aureus N315; type: binding; settings: S. aureus N315 ribosomes dimethylated at A2058, drugs at 100 μM
Description: as §1
Interaction of CEM-101 with S. aureus ribosomes dimethylated at A2058 by Erm-methyltransferase. Erm-methyltransferase modifies A2058 in 23S rRNA by consecutively adding two methyl groups to the exocyclic amino group of the adenine base. Such modification completely blocks binding of erythromycin and similar macrolides, whereas its effect on binding of ketolides is less clear (Douthwaite, S., L. H. Hansen, and P. Mauvais. 2000. Macrolide-ketolide inhibition of MLS-resistant ribosomes is improved by alternative drug interaction with domain R of 23S rRNA. Mol. Microbiol. 36:183-193; Liu, M., and S. Douthwaite. 2002. Activity of the ketolide telithromycin is refractory to Erm monomethylation of bacterial rRNA. Antimicrob. Agents Chemother. 46:1629-1633). Therefore, interaction of CEM-101 with the ribosomes isolated from a clinical S. aureus strain N315, which carries five chromosomal copies of constitutively expressed ermA gene present in the Tn554 transposon (Kuroda, M., T. Ohta, I. Uchiyama, T. Baba, H. Yuzawa, I. Kobayashi, L. Cui, A. Oguchi, K. Aoki, Y. Nagai, J. Lian, T. Ito, M. Kanamori, H. Matsumaru, A. Maruyama, H. Murakami, A. Hosoyama, Y. Mizutani-Ui, N. K. Takahashi, T. Sawano, R. Inoue, C. Kaito, K. Sekimizu, H. Hirakawa, S. Kuhara, S. Goto, J. Yabuzaki, M. Kanehisa, A. Yamashita, K. Oshima, K. Furuya, C. Yoshino, T. Shiba, M. Hattori, N. Ogasawara, H. Hayashi, and K. Hiramatsu. 2001. Whole genome sequencing of meticillin-resistant Staphylococcus aureacs. Lancet 357:1225-1240) was investigated.
Footprinting analysis was used to test interactions of ketolides (CEM-101 and telithromycin) and cladinose-containing macrolides (CEM-103 and erythromycin) with the 2058-dimethylated ribosomes isolated from the S. aureus N315 strain. Ribosomes were incubated with the drugs (present at 100 μM concentration) and probed by DMS modification. Because dimethylated A2058 blocks progression of reverse transcriptase along the RNA template, a strong reverse transcriptase stop is observed at A2058 on the primer extension gel (Vester, B., and S. Douthwaite. 1994. Domain V of 23S rRNA contains all the structural elements necessary for recognition by the ErmE methyltransferase. J. Bacteriol. 176:6999-7004; Zhong, P., Z. Cao, R. Hammond, Y. Chen, J. Beyer, V. D. Shortridge, L. Y. Phan, S. Pratt, J. Capobianco, K. A. Reich, R. K. Flamm, Y. S. Or, and L. Katz. 1999. Induction of ribosome methylation in MLS-resistant Streptococcus pneumoniae by macrolides and ketolides. Microb. Drug Resist. 5:183-188). Therefore, it is impossible to use footprinting to evaluate interactions of macrolides with this position in the S. aureus N315 ribosomes. […]

[5] = tested on: S. pyogenes 129-7129A/ermA; test: Conventional antibacterial screen; type: cell-based
E. coli ATCC 25922/WT = test: Conventional antibacterial screen; type: cell-based
M. luteus ATCC 9341/WT = test: Conventional antibacterial screen; type: cell-based
[6] = tested on: S. pneumoniae 120-1037B/-ermB/mefA; test: Conventional antibacterial screen; type: cell-based
[7] = tested on: S. pneumoniae ATCC 49619/WT; test: Conventional antibacterial screen; type: cell-based
S. aureus D-5/ermA = test: Conventional antibacterial screen; type: cell-based
[8] = tested on: S. pneumoniae 014-4331A/mefA; test: Conventional antibacterial screen; type: cell-based
S. aureus 024-11A/WT = test: Conventional antibacterial screen; type: cell-based
E. coli 122-5930A/WT = test: Conventional antibacterial screen; type: cell-based
S. aureus ATCC 29213/WT = test: Conventional antibacterial screen; type: cell-based
[9] = tested on: S. pyogenes 089-14217A/ermB; test: Conventional antibacterial screen; type: cell-based
S. pyogenes ATCC 19615 = test: Conventional antibacterial screen; type: cell-based
[10] = tested on: S. pneumoniae 007-4589A/ermB; test: Conventional antibacterial screen; type: cell-based
S. pneumoniae 117-20B/WT = test: Conventional antibacterial screen; type: cell-based
S. aureus BAA-977/ermA = test: Conventional antibacterial screen; type: cell-based
[11] = tested on: Streptococcus pyogenes Tel^R, Mac^R; test: MIC against streptococci clinical isolates (Table 3); type: cell-based; settings: S. pyogenes Tel^R, Mac^R; 9 strains (8 ermB, 1 ermA, constitutive)
[12] = tested on: Streptococcus pyogenes Tel^S, Mac^S; test: as above; type: cell-based; settings: 10 strains
[13] = tested on: Streptococcus pneumoniae Pen^R, Tel^1/^R, Mac^R; test: as above; type: cell-based; settings: S. pneumoniae Pen^R, 12 strains, constitutive ermB
[14] = tested on: Streptococcus pneumoniae Pen^S, Tel^S, Mac^S; test: as above; type: cell-based; settings: 10 strains

Molecule | IC50 [1] [nM] | Protection of A752 from DMS modification [2] | Protection of A752 from DMS modification [3] | Protection of A2059 from DMS modification (binding to Erm-modified ribosome) [4] | Protection of G2505 from kethoxal modification [4] | Protection of U2609 from modification with CMCT [4] | Screening result [5] | Screening result (E. coli ATCC 25922/WT) | Screening result (M. luteus ATCC 9341/WT) | Screening result [6] | Screening result [7] | Screening result (S. aureus D-5/ermA) | Screening result [8] | Screening result (S. aureus 024-11A/WT) | Screening result (E. coli 122-5930A/WT) | Screening result (S. aureus ATCC 29213/WT) | Screening result [9] | Screening result (S. pyogenes ATCC 19615) | Screening result [10] | Screening result (S. pneumoniae 117-20B/WT) | other results
CC[C@H]1OC(=O)[C@H](C)[C@@H](O[C@H]2C[C@@](C)(OC)[C@@H](O)[C@H](C)O2)[C@H](C)[C@@H](O[C@@H]2O[C@H](C)C[C@H](N(C)C)[C@H]2O)[C@](C)(O)C[C@@H](C)CN(C)[C@H](C)[C@@H](O)[C@]1(C)O [azithromycin] | 300 |  |  |  |  |  |  |  |  |  |  |  |  |  |  |  |  |  |  |  | 
CC[C@H]1OC(=O)[C@H](C)C(=O)[C@H](C)[C@@H](O[C@@H]2O[C@H](C)C[C@H](N(C)C)[C@H]2O)[C@](C)(OC)C[C@@H](C)C(=O)[C@H](C)[C@H]2N(CCCCn3cnc(-c4cccnc4)c3)C(=O)O[C@]12C [telithromycin] | 500 | strongly protects | strongly protects | protected A2059 but to a lesser extent than CEM-101 or CEM-103 | notably weaker protection | notably weaker protection |  |  |  |  |  |  |  |  |  |  |  |  |  |  | 
CC[C@H]1OC(=O)[C@H](C)C(=O)[C@H](C)[C@@H](OC2O[C@H](C)C[C@H](N(C)C)[C@H]2O)[C@@](C)(OC)C[C@@H](C)C(=O)[C@H](C)[C@H]2N(CCCCn3cc(Cc4c[nH]c5ccccc45)nn3)C(=O)O[C@]12C (stereo partly shown) [CEM-199, 5-O-desosaminyl-11-N-[4-[4-(indol-3-ylmethyl)[1,2,3]triazol-1-yl]butyl]-6-O-methyl-3-oxo-erythronolide A 11,12-cyclic carbamate] |  |  |  |  |  |  | 0.12 | 16 | 0.06 | 0.5 | 0.06 | >16 | 1 | 0.5 | 16 | 0.5 | 1 | 0.06 | 0.12 | 0.06 | Screening result (S. aureus BAA-977/ermA): 0.5
11-N-[4-[4-(3-aminophenyl)[1,2,3]triazol-1-yl]butyl]-6-O-methylerythromycin A 11,12-cyclic carbamate [CEM-103] |  | strongly protects | strongly protects | protection of A2059 from DMS modification | partially protected | fully protected |  |  |  |  |  |  |  |  |  |  |  |  |  |  | Protection of A2058 and A2059 in domain V of 23S rRNA from modification with DMS ([2]; S. aureus wild-type ribosomes): protect; Protection of A2058 and A2059 in domain V of 23S rRNA from modification with DMS ([3]; E. coli wild-type ribosomes): protect
CC[C@H]1OC(=O)[C@@](C)(F)C(=O)[C@H](C)[C@@H](OC2O[C@H](C)C[C@H](N(C)C)[C@H]2O)[C@@](C)(OC)C[C@@H](C)C(=O)[C@H](C)[C@H]2N(CCCCn3cc(Cc4c[nH]c5ccccc45)nn3)C(=O)O[C@]12C (stereo partly shown) [CEM-219, 2-fluoro-5-O-desosaminyl-11-N-[4-[4-(indol-3-ylmethyl)[1,2,3]triazol-1-yl]butyl]-6-O-methyl-3-oxo-erythronolide A 11,12-cyclic carbamate] |  |  |  |  |  |  | ≦0.015 | >16 | ≦0.015 | 0.12 | ≦0.015 | >16 | 0.5 | 0.5 | >16 | 0.25 | 0.5 | ≦0.015 | ≦0.015 | ≦0.015 | Screening result (S. aureus BAA-977/ermA): 0.25
11-N-[4-[4-(3-aminophenyl)[1,2,3]triazol-1-yl]butyl]-5-O-desosaminyl-6-O-methyl-3-oxo-erythronolide A 11,12-cyclic carbamate [CEM-Des-F] |  |  |  |  |  |  |  |  |  |  |  |  |  |  |  |  |  |  |  |  | MIC50 [11]: 2 µg/mL; MIC90 [11]: 2 µg/mL; MIC50 [12]: 0.03 µg/mL; MIC90 [12]: 0.03 µg/mL; MIC50 [13]: 4 µg/mL; MIC90 [13]: 4 µg/mL; MIC50 [14]: 0.03 µg/mL; MIC90 [14]: 0.03 µg/mL
